Broadly, the IC50 is the concentration needed to halve the response being measured. A lower IC50 goes with inhibition by little substance.

Results on 7 compounds are retold here after ChEMBL document CHEMBL1128124, “Inhibitors of acyl-CoA: Cholesterol O-acyl transferase (ACAT) as hypocholesterolemic agents. 13. Design, synthesis and biological evaluation of tetrazole anilides as potent inhibitors of ACAT in vitro and hypocholesterolemic agents in vivo” (Bioorg Med Chem Lett, 1995).

The test system of assay [1] is Rattus norvegicus. Briefly: Percent change in total cholesterol in cholic acid (0.5%)-cholesterol (1.5%)-peanut oil (5.5%)-fed rats after administration of 30 mg/kg was determined. The assay is classed as functional.
The subject of assay [2] is Rattus norvegicus. Briefly: Percent change in total cholesterol in cholic acid (0.5%)-cholesterol (1.5%)-peanut oil (5.5%)-fed rats after administration of 30 mg/kg was determined. The assay is classed as functional.
Assay [3] deals with Rattus norvegicus. Briefly: Percent change in total cholesterol in cholic acid (0.5%)-cholesterol (1.5%)-peanut oil (5.5%)-fed rats after administration of 30 mg/kg for 7 days was determined. The assay is classed as functional.
Assay [4] deals with Rattus norvegicus. The assay can be described thus: Percent change in total cholesterol in cholic acid (0.5%)-cholesterol (1.5%)-peanut oil (5.5%)-fed rats after administration of 3 mg/kg was determined. The assay is classed as functional.
Assay [5] relates to Rattus norvegicus. The assay can be described thus: Percent change in total cholesterol in cholic acid (0.5%)-cholesterol (1.5%)-peanut oil (5.5%)-fed rats after administration of 3 mg/kg for 7 days was determined. The format is functional.
Assay [6] concerns Rattus norvegicus. The assay can be described thus: Percent change in total cholesterol in cholic acid (0.5%)-cholesterol (1.5%)-peanut oil (5.5%)-fed rats after administration of 3 mg/kg was determined. The assay is classed as functional.
In assay [7] the test system is Rattus norvegicus. Briefly: Percent change in total cholesterol in cholic acid (0.5%)-cholesterol (1.5%)-peanut oil (5.5%)-fed rats after administration of 10 mg/kg for 7 days was determined. The assay is classed as functional.
Assay [8] concerns Rattus norvegicus. Briefly: Percent change in total cholesterol in cholic acid (0.5%)-cholesterol (1.5%)-peanut oil (5.5%)-fed rats after administration of 3 mg/kg for 7 days was determined. The assay is classed as functional.
The subject of assay [9] is Rattus norvegicus. Briefly: Percent change in total cholesterol in cholic acid (0.5%)-cholesterol (1.5%)-peanut oil (5.5%)-fed rats after administration of 10 mg/kg for 7 days was determined. The assay is classed as functional.
In assay [10] the target is T1, Sterol O-acyltransferase 1 (Rattus norvegicus, UniProt O70536).
T1 sequence (O70536 whole entry): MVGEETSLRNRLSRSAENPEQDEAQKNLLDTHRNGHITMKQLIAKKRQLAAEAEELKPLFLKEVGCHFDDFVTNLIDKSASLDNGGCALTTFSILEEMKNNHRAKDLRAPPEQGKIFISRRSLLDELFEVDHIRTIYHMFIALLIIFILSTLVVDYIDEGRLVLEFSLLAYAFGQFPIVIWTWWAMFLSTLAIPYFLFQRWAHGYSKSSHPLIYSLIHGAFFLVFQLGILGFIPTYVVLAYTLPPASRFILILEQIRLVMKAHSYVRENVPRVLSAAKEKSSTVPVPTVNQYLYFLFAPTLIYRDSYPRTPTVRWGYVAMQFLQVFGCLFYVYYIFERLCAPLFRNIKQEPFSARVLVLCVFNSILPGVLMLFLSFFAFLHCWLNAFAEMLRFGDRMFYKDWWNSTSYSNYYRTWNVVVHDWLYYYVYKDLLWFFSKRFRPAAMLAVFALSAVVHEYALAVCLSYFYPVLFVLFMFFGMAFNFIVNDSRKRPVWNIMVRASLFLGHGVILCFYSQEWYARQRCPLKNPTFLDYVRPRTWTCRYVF
The assay can be described thus: Concentration required for the in vitro inhibition of Acyl coenzyme A:cholesterol acyltransferase (ACAT) in liver microsomes isolated from cholesterol-fed rats was determined. Further details: species or system Microsome. On the technique in general: Liver microsomes are a subcellular fraction often used to study metabolism.

The structures appear in SMILES notation.

As for `CCCCCCCCCCCCn1nnnc1C(C(=O)Nc1c(OC)cc(OC)cc1OC)c1ccccc1` (stereo not drawn), the “Change TC” value with Rattus norvegicus [1] was -38%.

With `CCCCCCCCCCCCn1nnnc1C(C(=O)Nc1c(C(C)C)cccc1C(C)C)c1ccccc1` (stereo not drawn), the “Change TC” value with Rattus norvegicus [2] is -44%; with Rattus norvegicus [3], -24%.

With `CCCCCCCCCCCCn1nnc(C(C(=O)Nc2c(C(C)C)cccc2C(C)C)c2ccccc2)n1` (stereo not drawn), the “Change TC” value was -46% with Rattus norvegicus [4], -49% in the assay with Rattus norvegicus [2] and -38% in the assay with Rattus norvegicus [3].

Take `CCCCCCCCCCCCn1nnc(C(C(=O)Nc2c(OC)cc(OC)cc2OC)c2ccccc2)n1` (stereo not drawn): the “Change TC” value in the assay with Rattus norvegicus [5] is reported as -23%; in the assay with Rattus norvegicus [6], -65%; in the assay with Rattus norvegicus [7] it was -59%; in the assay on Rattus norvegicus [1] it was -63%.

With `CCCCCCCCCCCCn1nnc(C(C(=O)Nc2c(OC)cc(OC)cc2OC)c2ccccc2)n1` (single isomer, unassigned; (+)), the “Change TC” value is reported as -55% in the assay with Rattus norvegicus [8] (3 mg/kg), -66% in the assay with Rattus norvegicus [4] (3 mg/kg), -68% with Rattus norvegicus [2] (30 mg/kg) and -60% with Rattus norvegicus [9] (10 mg/kg).

As for `CCCCCCCCCCCCn1nnc(C(C(=O)Nc2c(OC)cc(OC)cc2OC)c2ccccc2)n1` (stereo in doubt; 8-(-)), the IC50 in [10] turned out to be 330 nM. Moreover, the “Change TC” value with Rattus norvegicus [8] (3 mg/kg) is 7%; in the assay with Rattus norvegicus [4] (3 mg/kg) it was -47%; in the assay on Rattus norvegicus [2] (30 mg/kg), -64%; with Rattus norvegicus [9] (10 mg/kg), -11%.

For `CCCCCCCCCCC(C)(C)C(=O)Nc1c(OC)cc(OC)cc1OC` [CL-976], the “Change TC” value in the assay on Rattus norvegicus [8] is listed as -12%; with Rattus norvegicus [4], -15%; in the assay on Rattus norvegicus [2] it was -57%; in the assay with Rattus norvegicus [9] it was -17%.
